Results on 3 compounds are retold here after US10168317B2, “Microfluidic device, system, and method for tracking single cells and single cell lineages” (CORNELL UNIVERSITY, priority 2012, dated 2019).

Where “and” joins values, the source holds several entries; their conditions need not be identical. Equal entries are not always repeated. Entries after “also recorded” stand apart in the source; their conditions may differ. Some results are limits rather than exact numbers.

Test [1] has as its system cells. As to conditions: straight confinement microchannels; cited from earlier work.
Test [2] concerns cell invasion. As to conditions: together with protease inhibitors; cited from earlier work.
Test [3] concerns MDA-MB-231 cells. Nature of the test: Single-cell lineage drug response in parallel microfluidic channels. In kind it is cell-based, human. As to conditions: 1 nM Paclitaxel, constant treatment, day 2 and day 6, about one week. How it is done: FIG. 26 illustrates breast cancer cells treated with 1 nM Paclitaxel at day 2 (top) and day 6 (bottom) from initial treatment, as observed in one embodiment of a microfluidic device/microfluidic system of the present invention. […] The emergence of drug resistance can therefore be identified at the single-cell and single-cell lineage level, which can provide better biological resolution and can identify the onset of resistance more quickly especially if only a rare subpopulation of the bulk cells is resistant.
To move forward, we will expand these studies to distinguish the difference in drug responsivity between individual cell lineages enabled by our cell isolation technique previously described, and we will extend the time-scale of these experiments to accommodate for the emergence of drug resistance.

Test [4] deals with MDA-MB-231 cells. Nature of the test: MUSIC device: cell invasion across subnucleus barriers (SNI), timelapse. As to conditions: for ability to invade across subnucleus barriers / tight spaces: taxol (Paclitaxel)-treated MDA-MB-231 cells. In kind it is cell-based, human. How it is done:
(§1) MDA-MB-231 cells were obtained from the NCl PS-OC and the ATCC. They were cultured in Leibovitz L-15 media (Life Technologies) supplemented with 10% fetal bovine serum (Atlanta Biologicals) and 1% Penicillin-Streptavidin (Life Technologies). K20T cells were obtained from the Giannakakou lab at Weill Cornell Medical College. They are a taxol-resistant derivative of MDA-MB-231 cells (K. M. Wiesen et al., Cancer Letters, 2007, 257, 227-235). They were cultured in L-15 media supplemented with 10% fetal bovine serum, 1% Penicillin-Streptavidin, and 15 nM paclitaxel (taxol) (Cytoskeleton, Inc). All cells were incubated at 37° C. without supplemented CO2.
Cells were loaded into the inlet reservoir regions at the ends of the microchannels and allowed to spontaneously migrate into the three-dimensionally confined channels. Devices with cells were incubated as in regular cell culture as described above. Timelapse experiments were performed once the cells were in the channels. For each experiment, devices were placed on top of a heating plate maintained at 37° C. Typical durations for timelapse experiments were around 1-2 days at a temporal resolution of 3.4 minutes. Cell tracking and measurements were performed by manual tracing via ImageJ. Data processing and analysis were performed via custom programs on MATLAB. The height of the microchannels used for all experiments with quantitative analysis was 10 μm. […] For statistical analysis, the Chi-squared test was used for probability measurements, and ANOVA statistics were used for all other measurements, unless otherwise specified. Error bars are standard error of the mean (s.e.m.). Standard DAPI staining was used for fluorescence imaging in FIG. 9. For cell viability in these devices, we found in a typical timelapse experiment of ˜23 hrs that less than 10% (5 out of 54) of the cells died while occupying the experimental field of view.
To develop an assay that can directionally focus the cell invasion program for high throughput quantitative analysis, we designed and fabricated a microfluidic device that induces serial dimensional modulation on the cell and nucleus scale (FIG. 3). We refer to this herein as a MUlti-staged Serial Invasion Channels (MUSIC) device. […] Then we incorporate a spatially tapering interface that connects the confinement channel to another even smaller channel (referred to as the subnucleus barrier (SNB)) with width smaller than the cell nucleus, which is one of the largest and stiffest organelles in the cell (P. Friedl et al., Current Opinion in Cell Biology, 2011, 23, 55-64). […] This device design in essence directs and reduces the 3-D invasion program into a 2-component process—1) the cell migrates in the x-direction while 2) necessarily altering its y-dimensions. Because the migration vector points in one direction (x) and the primary induced region of change is in the orthogonal direction (y), high throughput quantitative analysis can now be accomplished in 1-D, thus increasing the feasibility of experiments and enabling predetermined axes of interest. Furthermore, repeating patterns of the subnucleus barrier are placed along the length of the microchannel, enabling serial effects and multiple sampling of individual cells, therefore providing a way to elucidate the plasticity of mechanisms of invasion for each cell. In our experiments, we consider both 1) cell invasion in only the larger confinement channel region (referred to as LCI) and 2) invasion from the larger channel across the subnucleus barrier (referred to as SNI). Our device design incorporates two different lengths for the SNB—10 μm (SNB10) and 60 μm (SNB60), which are shorter and longer than a typical MDA-MB-231 cell, respectively.
To understand higher order effects of cell invasion, we first identified the nonlinearity in the cell displacement function during SNI. Then we segmented the process into 4 distinct phases and measured the time constants of each phase. […]

The test system of test [5] is MDA-MB-231 metastatic breast cancer cells. Description: Cell morphology after taxol treatment in the microfluidic device. In kind it is cell-based, human. An excerpt:
FIGS. 29A-29B illustrate cancer cells treated with the chemotherapeutic taxol in embodiments of a microfluidic device and system of the present invention. […] FIG. 29B: This more extended morphology from taxol-treated cells after failed mitosis resembles the morphology of K20T cells, which are the taxol-resistant variant of the MDA-MB-231 cells.
FIGS. 29A-29B show cancer cells treated with the chemotherapeutic taxol in embodiments of a microfluidic device and system of the present invention. […] They also lose the ability to divide properly, resulting in an extensive blebbing phase followed by cytoskeletal recovery. After failed mitosis and recovery, the cells take on a different, more extended morphology, typically with more edges and extensions. This new morphology resembles the taxol-resistant variant of these cells. […] For timelapse stacks, 34 minutes elapsed between each frame.

Test [6] deals with MDA-MB-231 cells. Nature of the test: MUSIC device: cell migration in the larger channel LC (speed, mean-squared displacement). In kind it is cell-based, human. How it is done:
as §1
Cells were loaded into the inlet reservoir regions at the ends of the microchannels and allowed to spontaneously migrate into the three-dimensionally confined channels. Devices with cells were incubated as in regular cell culture as described above. Timelapse experiments were performed once the cells were in the channels. For each experiment, devices were placed on top of a heating plate maintained at 37° C. Typical durations for timelapse experiments were around 1-2 days at a temporal resolution of 3.4 minutes. Cell tracking and measurements were performed by manual tracing via ImageJ. Data processing and analysis were performed via custom programs on MATLAB. The height of the microchannels used for all experiments with quantitative analysis was 10 μm. […] Standard DAPI staining was used for fluorescence imaging in FIG. 9. […]
To develop an assay that can directionally focus the cell invasion program for high throughput quantitative analysis, we designed and fabricated a microfluidic device that induces serial dimensional modulation on the cell and nucleus scale (FIG. 3). […] Because the migration vector points in one direction (x) and the primary induced region of change is in the orthogonal direction (y), high throughput quantitative analysis can now be accomplished in 1-D, thus increasing the feasibility of experiments and enabling predetermined axes of interest. […]

Test [7] has as its system MDA-MB-231 cells. Description: Serial micropipette: pressure-driven transit across sequential subnucleus-scaled constrictions. In kind it is cell-based, human. As to conditions: 10 μM taxol for 1 day. On the procedure:
MDA-MB-231 cells were obtained from the NCl Physical-Sciences and Oncology Center. They were cultured in Leibovitz L-15 media (Life Technologies) with 10% fetal bovine serum (Atlanta Biologicals) and 1% Penicillin-Streptavidin (Life Technologies) at 37° C. without CO2.
Devices were treated with 1% bovine serum albumin (BSA) (Sigma-Aldrich) in serum-free media (L-15) for several hours before experiments in order to prevent stiction. Additionally, cells used in experiments were resuspended in serum-free media. Cells were loaded into the inlet reservoir of the device and experiments were automatically conducted as described in the design and operations section of this paper. The device was placed and kept on a heating plate set at 37° C. Videos were recorded at 500 ms per frame under a microscope, which produced the data of the experiments. Experimental analysis and cell tracking were performed using ImageJ and custom MATLAB programs. For statistical analysis, one-way ANOVA was used to determine statistical significance. Error bars on data represent standard error of the mean (s.e.m.). For taxol experiments, cells were incubated in 10 μM taxol (Cytoskeleton, Inc.) for 1 day prior to experiments. For fluorescence experiments, NucBlue (a live nucleus counterstain that is formulated from Hoechst 33342) (Life Technologies) was used and cells were incubated in the dye in complete growth media for 15 minutes.
The device consists of parallel microchannels. Each channel contains a series of microconstrictions to serve as a serial micropipette capable of deforming objects multiple times via pressure driven flow. The larger region of the channel has a width of 15 μm, which is on the order of the size of a cell. The smaller constriction region is 3.3 μm, which is smaller than the cell nucleus, thus ensuring that the cell undergoes a substantial deformation that samples a key organelle in the cell that often limits cell squeezing in physiological landscapes due to its size and stiffness. […]

In the case of `COC(=O)Nc1nc2ccc(C(=O)c3cccs3)cc2[nH]1` [Nocodazole], the “effect on migration rates in confinement” value in test [1] is on record as “migration rates are affected”.
Take `C[C@@H](N)[C@H]1CC[C@H](C(=O)Nc2ccncc2)CC1` [Y27632]: in test [2], the “effect on cell invasion in combination with protease inhibitors” value is on record as “synergistic effects in preventing cell invasion”.
For the compound `CC(=O)O[C@H]1C(=O)[C@@]2(C)[C@H]([C@H](OC(=O)c3ccccc3)[C@]3(O)C[C@H](OC(=O)[C@H](O)[C@@H](NC(=O)c4ccccc4)c4ccccc4)C(C)=C1C3(C)C)[C@]1(OC(C)=O)CO[C@@H]1C[C@@H]2O` [taxol, paclitaxel], the “viability and proliferation of single-cell lineages under drug” value in test [3] is “many cells underwent apoptosis but a select lineage continues to propagate; also recorded: many other cells in other channels underwent apoptosis after failed cell division”. Moreover, the “total invasion time across subnucleus barrier SNB10” value was ≥ 22 h in test [4] (16 µM) and > 20 h in test [4] (taxol-treated MDA-MB-231 cells, 16 μM taxol (printed 1604), 10 μm long barrier, lower-bound measurement, many cells not permeated by end of experiment). Further, in test [4] (barrier 10 μm long, 16 μM taxol), the “factor of difference in total SNI time, treated vs untreated cells” value was > 20. Besides, the “ability to invade across subnucleus barriers / tight spaces” value is reported as “reduced ability in invading across tight spaces” in test [4] and “can no longer invade” in test [4] (listed as Paclitaxel). The “total invasion time across subnucleus barrier SNB60” value in test [4] (taxol-treated MDA-MB-231 cells, 16 μM taxol (printed 1604), 60 μm long barrier, lower-bound measurement) was ≥ 22 h. Further, the “cell morphology after failed mitosis” value in test [5] (taxol-treated cells after failed mitosis and recovery) is given as “recover a more extended morphology”. The “cell morphology after treatment” value in test [5] (taxol-treated cells before failed mitosis) is on record as “less extended, more rounded morphology”. Besides, in test [6] (larger channel region LC, 16 μM taxol), the “factor of difference in average cell speed between treated and untreated cells” value was ~2. In test [6] (taxol-treated MDA-MB-231 cells in larger channel LC, n=10 cells, non-linear least squares fit), the “power-law exponent of mean-squared displacement vs. time (MSD ∝ t^x)” value is 1 and 1.014. Also, the “average speed in the larger channel LC” value in test [6] (taxol-treated MDA-MB-231 cells, 16 μM (printed 1604), 3.4 minute time interval, n=10) is 0.53 μm/min. Moreover, in test [1], the “effect on migration rates in confinement” value is “migration rates are affected”. Besides, the “transit time across the first constriction” value in test [7] (10 μm-long constriction, about 400 pa, n=26) turned out to be 550 ± 109 s. In addition, in test [7] (constrictions 2 to 5), the “transit times across subsequent constrictions, taxol treated vs untreated cells” value is listed as “transit times collapse between the two cell groups”. Besides, the “cell length in the microchannel (cell size)” value in test [7] (n=26) was found to be 31±2 μm.
